In patent US20260174875A1 (Novo Nordisk A/S, priority 2023, published 2026):
Where two headings read alike, the source gives them in different places.

Experiments:
Assay type in all cases: cell-based
[1] = molecular target: T1, human amylin receptor (hAMYR3) (Homo sapiens, UniProt O60896+P30988); assay: Amylin receptor assay, method B (CRE-luciferase reporter, BHK cells)
T1 construct: host or cells: BHK cells (Hollex-1 line expressing hCTR(a) and CRE-Luc), further transfected with human RAMP3
Protocol: To assess how the activation of the receptors is potentially influenced by the presence of human serum albumin (HSA), the in vitro assays were performed in the absence of HSA and presence of 1% (w/v) HSA.
It is thus possible to measure hAMYR3 activity using a CRE-luciferase reporter gene introduced into Baby Hamster Kidney (BHK) cells co-expressing the hAMYR3.
The cell line was further transfected with human receptor modifying protein 3 (RAMP3) using standard methods.
After centrifugation, the cell pellet was resuspended and diluted to approximately 2.5-4.0×10^6 (2.5E+6 to 4.0E+6) cells/mL in Recovery™ Cell Culture Freezing Medium (Gibco, 12648-010). Cells were aliquoted and stored at −180° C. until use.
The assay buffer consisted of DMEM without phenol red (Gibco, 11880-028) supplemented with 1× GlutaMAX (Gibco, 35050-038), 10 mM HEPES (Gibco, 15630-056) and 1% (w/v) ovalbumin (Sigma, A5503) either with or without 0.1% (v/v) Pluronic F-68 (Gibco, 24040-032) and either with or without HSA (Sigma, A9511).
To perform the assay, hAMYR3 BHK Cre-Luc cells were thawed, washed once in PBS (Gibco 14190-094) and seeded in 40 μL growth medium in a white 384-well culture plate (PerkinElmer/Revvity, 6007688) at a cell density of 4.0×10^3 (4.0E+3) cells/well the day before the experiment. The plate was incubated over night at 37° C. in 5% CO2. […] Serial dilutions were then mixed in a new 96-well plate with equal volume (1:1:1 ratio) of assay buffer and either assay buffer without or with 3% HSA (Sigma, A-9511). Twenty microliters of the solution mix were transferred to the cells which previously were washed once with PBS (Gibco 14190-094). After a short centrifugation, the assay plates were incubated for 3 hours at 37° C. in 5% CO2 and let to equilibrated at room temperature for 10 minutes before the addition of 30 μL steadylite Plus™ PerkinElmer/Revvity, 6066759) per well. Plates were sealed and incubated at room temperature with gentle shaking for 30 minutes while protected from light. Luminescence was detected on a luminescence plate reader e.g., a Synergy 2 (BioTek).

[2] = molecular target: T2, human GIP receptor (hGIPR) (Homo sapiens, UniProt P48546); assay: GIP receptor assay, method B (CRE-luciferase reporter, BHK cells, 384-well)
T2 construct: expressed in transfected cells
T2 sequence (P48546 22-466): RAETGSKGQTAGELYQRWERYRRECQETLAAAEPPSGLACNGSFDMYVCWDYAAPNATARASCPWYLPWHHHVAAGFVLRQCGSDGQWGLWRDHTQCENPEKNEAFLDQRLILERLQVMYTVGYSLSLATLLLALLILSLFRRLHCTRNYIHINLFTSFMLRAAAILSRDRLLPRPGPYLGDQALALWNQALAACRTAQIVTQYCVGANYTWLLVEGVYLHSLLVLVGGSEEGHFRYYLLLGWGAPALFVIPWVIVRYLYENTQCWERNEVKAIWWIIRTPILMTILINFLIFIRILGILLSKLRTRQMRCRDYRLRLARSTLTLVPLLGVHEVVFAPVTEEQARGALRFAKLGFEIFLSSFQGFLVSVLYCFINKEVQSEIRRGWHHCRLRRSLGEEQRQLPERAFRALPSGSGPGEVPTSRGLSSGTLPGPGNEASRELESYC

[3] = molecular target: T3, human GLP-1 receptor (hGLP-1R) (Homo sapiens, UniProt P43220); assay: GLP-1 receptor assay, method B (CRE-luciferase reporter, BHK cells, 384-well)
T3 construct: expressed in transfected cells
T3 sequence (P43220 24-463): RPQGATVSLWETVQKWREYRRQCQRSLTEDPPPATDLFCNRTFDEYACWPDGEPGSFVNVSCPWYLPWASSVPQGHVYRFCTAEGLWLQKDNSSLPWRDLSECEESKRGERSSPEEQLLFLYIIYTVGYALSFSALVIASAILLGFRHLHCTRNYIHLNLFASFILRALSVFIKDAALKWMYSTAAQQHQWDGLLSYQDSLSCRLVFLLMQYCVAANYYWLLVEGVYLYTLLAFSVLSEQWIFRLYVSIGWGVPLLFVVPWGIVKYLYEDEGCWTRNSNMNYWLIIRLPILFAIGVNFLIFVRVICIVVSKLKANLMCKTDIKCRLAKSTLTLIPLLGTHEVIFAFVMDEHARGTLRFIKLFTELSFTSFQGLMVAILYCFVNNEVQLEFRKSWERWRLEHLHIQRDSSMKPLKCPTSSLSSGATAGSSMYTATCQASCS
Protocol: Cells at approximately 80-90% confluence were washed once in PBS (Gibco 14190-094) and loosened from the cell flasks with Versene (Gibco, 15040-033). […] Cells were aliquoted and stored at −180° C. until use.
The assay buffer consisted of DMEM without phenol red (Gibco, 11880-028) supplemented with 1× GlutaMAX (Gibco, 35050-038), 10 mM HEPES (Gibco, 15630-056), 1% (w/v) ovalbumin (Sigma, A5503) and 0.1% (v/v) Pluronic F-68 (Gibco, 24040-032) either with HSA or without HSA (Sigma, A9511).
Serial dilutions were transferred to a 384-well assay plate (PerkinElmer/Revvity, 6007688) and mixed with an equal volume (10 μL) of assay buffer without or with 3% (w/v) HSA (Sigma, A-9511). Frozen stocks of hGLP-1R BHK Cre-Luc cells were thawed in a 37° C. water bath, washed once in PBS (Gibco 14190-094), diluted to 1.5×10^5 (1.5E+5) cells/mL in assay buffer (without HSA) and added (10 μL) to each well of the 384-well assay plate. After a short centrifugation, the assay plates were incubated for 3 hours at 37° C. in 5% CO2 and let to equilibrated at room temperature for 10 minutes before the addition of 30 μL steadylite Plus™ PerkinElmer/Revvity, 6066759) per well. Plates were sealed and incubated at room temperature with gentle shaking for 30 minutes while protected from light. Luminescence was detected on a luminescence plate reader e.g. a Synergy 2 (BioTek).

[4] = hAMYR3 Potency, 1% HSA, EC50, methods B, in the presence of 1% HSA
[5] = method B, absence of HSA, read-out: hAMYR3 Potency, no HSA, EC50
[6] = hGIPR Potency, 1% HSA, EC50, methods B, in the presence of 1% HSA
[7] = method B, absence of HSA, read-out: hGIPR Potency, no HSA, EC50
[8] = hGLP-1R Potency, 1% HSA, EC50, methods B, in the presence of 1% HSA
[9] = method B, absence of HSA, read-out: hGLP-1R Potency, no HSA, EC50

T1 sequence (P30988 25-474): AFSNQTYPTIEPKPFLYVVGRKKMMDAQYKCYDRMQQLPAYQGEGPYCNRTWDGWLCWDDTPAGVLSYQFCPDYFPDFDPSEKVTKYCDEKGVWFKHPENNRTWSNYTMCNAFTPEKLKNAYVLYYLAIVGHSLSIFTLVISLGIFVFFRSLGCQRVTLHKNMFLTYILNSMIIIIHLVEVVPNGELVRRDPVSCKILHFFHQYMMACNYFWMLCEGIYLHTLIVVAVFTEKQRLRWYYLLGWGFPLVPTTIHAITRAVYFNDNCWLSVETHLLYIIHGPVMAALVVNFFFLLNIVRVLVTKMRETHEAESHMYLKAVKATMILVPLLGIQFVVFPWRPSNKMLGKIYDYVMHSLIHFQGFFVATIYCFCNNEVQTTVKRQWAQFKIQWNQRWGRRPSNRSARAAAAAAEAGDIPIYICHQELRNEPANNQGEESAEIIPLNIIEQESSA
T1 sequence (O60896 24-148): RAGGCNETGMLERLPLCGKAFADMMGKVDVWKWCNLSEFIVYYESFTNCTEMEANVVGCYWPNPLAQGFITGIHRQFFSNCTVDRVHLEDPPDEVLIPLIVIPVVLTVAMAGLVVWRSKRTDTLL

EC50 [1, 4] [nM] | EC50 [1, 5] [nM] | EC50 [2, 6] [nM] | EC50 [2, 7] [nM] | EC50 [3, 8] [nM] | EC50 [3, 9] [nM] | SMILES
0.961 | 0.00761 | 0.0107 | 0.00299 | 0.0653 | 0.0262 | CC[C@H](C)[C@H](NC(=O)[C@H](CCC(=O)O)NC(=O)[C@H](CCC(=O)O)NC(=O)[C@H](CC(C)C)NC(=O)[C@H](CC(C)C)NC(=O)[C@@H](NC(=O)[C@H](CO)NC(=O)[C@H](Cc1ccc(O)cc1)NC(=O)[C@H](CC(=O)O)NC(=O)[C@H](CO)NC(=O)[C@@H](NC(=O)[C@H](Cc1ccccc1)NC(=O)[C@@H](NC(=O)CNC(=O)[C@H](CCC(=O)O)NC(=O)C(C)(C)NC(=O)[C@@H](N)Cc1ccc(O)cc1)[C@@H](C)O)[C@@H](C)O)[C@@H](C)CC)C(=O)N[C@@H](C)C(=O)N[C@@H](C)C(=O)N[C@@H](CCCNC(=N)N)C(=O)N[C@@H](CCC(=O)O)C(=O)N[C@@H](Cc1ccccc1)C(=O)N[C@H](C(=O)N[C@@H](CCC(=O)O)C(=O)N[C@@H](Cc1c[nH]c2ccccc12)C(=O)N[C@@H](CC(C)C)C(=O)N[C@@H](CC(C)C)C(=O)N[C@@H](C)C(=O)NCC(=O)NCC(=O)N1CCC[C@H]1C(=O)N[C@@H](CO)C(=O)N[C@@H](CO)C(=O)NCC(=O)N[C@@H](C)C(=O)NCC(=O)N[C@@H](CCC(N)=O)C(=O)N[C@@H](C)C(=O)N[C@@H](CCC(=O)O)C(=O)NCC(=O)N[C@@H](CCC(N)=O)C(=O)N[C@@H](C)C(=O)N1CCC[C@H]1C(=O)NCC(=O)N[C@@H](C)C(=O)N[C@@H](CO)C(=O)N[C@@H](Cc1c[nH]cn1)C(=O)N[C@@H](CC(C)C)C(=O)N[C@@H](CO)C(=O)N[C@H](C(=O)N[C@@H](C)C(=O)N[C@@H](CCC(N)=O)C(=O)N[C@H](C(=O)N[C@@H](CCC(N)=O)C(=O)N[C@@H](CCCNC(=N)N)C(=O)N[C@@H](CC(C)C)C(=O)N[C@@H](CO)C(=O)N[C@@H](C)C(=O)N[C@@H](CCC(=O)O)C(=O)N[C@@H](CC(C)C)C(=O)N[C@@H](Cc1c[nH]cn1)C(=O)N[C@@H](CCCCNC(=O)COCCOCCNC(=O)COCCOCCNC(=O)CC[C@H](NC(=O)CCCCCCCCCCCCCCCCCCC(=O)O)C(=O)O)C(=O)N[C@@H](CC(C)C)C(=O)N[C@@H](C)C(=O)N[C@H](C(=O)N[C@@H](CC(C)C)C(=O)N1CCC[C@H]1C(=O)N[C@@H](CCCNC(=N)N)C(=O)N[C@H](C(=O)N[C@@H](CCC(=O)O)C(=O)N[C@H](C(=O)NCC(=O)N[C@@H](CO)C(=O)NCC(=O)N[C@@H](CO)C(=O)N1CCC[C@H]1C(N)=O)[C@@H](C)O)[C@@H](C)O)[C@@H](C)O)[C@@H](C)O)[C@@H](C)O)[C@@H](C)CC [Compound 150]
0.95 | 0.00967 | 0.0139 | 0.00399 | 0.0726 | 0.0277 | CC[C@H](C)[C@H](NC(=O)[C@H](CCC(=O)O)NC(=O)[C@H](CCC(=O)O)NC(=O)[C@H](CC(C)C)NC(=O)[C@H](CC(C)C)NC(=O)[C@@H](NC(=O)[C@H](CO)NC(=O)[C@H](Cc1ccc(O)cc1)NC(=O)[C@H](CC(=O)O)NC(=O)[C@H](CO)NC(=O)[C@@H](NC(=O)[C@H](Cc1ccccc1)NC(=O)[C@@H](NC(=O)CNC(=O)[C@H](CCC(=O)O)NC(=O)C(C)(C)NC(=O)[C@@H](N)Cc1ccc(O)cc1)[C@@H](C)O)[C@@H](C)O)[C@@H](C)CC)C(=O)N[C@@H](C)C(=O)N[C@@H](C)C(=O)N[C@@H](CCCNC(=N)N)C(=O)N[C@@H](CCC(=O)O)C(=O)N[C@@H](Cc1ccccc1)C(=O)N[C@H](C(=O)N[C@@H](CCC(=O)O)C(=O)N[C@@H](Cc1c[nH]c2ccccc12)C(=O)N[C@@H](CC(C)C)C(=O)N[C@@H](CC(C)C)C(=O)N[C@@H](C)C(=O)NCC(=O)NCC(=O)N1CCC[C@H]1C(=O)N[C@@H](CO)C(=O)N[C@@H](CO)C(=O)NCC(=O)N[C@@H](C)C(=O)NCC(=O)N[C@@H](CCC(N)=O)C(=O)N[C@@H](C)C(=O)N1CCC[C@H]1C(=O)N[C@@H](CCC(=O)O)C(=O)N[C@@H](CCC(N)=O)C(=O)N[C@@H](C)C(=O)N1CCC[C@H]1C(=O)NCC(=O)N[C@@H](C)C(=O)N[C@@H](CO)C(=O)N[C@@H](Cc1c[nH]cn1)C(=O)N[C@@H](CC(C)C)C(=O)N[C@@H](CO)C(=O)N[C@H](C(=O)N[C@@H](C)C(=O)N[C@@H](CCC(N)=O)C(=O)N[C@H](C(=O)N[C@@H](CCC(N)=O)C(=O)N[C@@H](CCCNC(=N)N)C(=O)N[C@@H](CC(C)C)C(=O)N[C@@H](CO)C(=O)N[C@@H](C)C(=O)N[C@@H](CCC(=O)O)C(=O)N[C@@H](CC(C)C)C(=O)N[C@@H](Cc1c[nH]cn1)C(=O)N[C@@H](CCCCNC(=O)COCCOCCNC(=O)COCCOCCNC(=O)CC[C@H](NC(=O)CCCCCCCCCCCCCCCCCCC(=O)O)C(=O)O)C(=O)N[C@@H](CC(C)C)C(=O)N[C@@H](C)C(=O)N[C@H](C(=O)N[C@@H](CC(C)C)C(=O)N1CCC[C@H]1C(=O)N[C@@H](CCCNC(=N)N)C(=O)N[C@H](C(=O)N[C@@H](CCC(=O)O)C(=O)N[C@H](C(=O)NCC(=O)N[C@@H](CO)C(=O)NCC(=O)N[C@@H](CO)C(=O)N1CCC[C@H]1C(N)=O)[C@@H](C)O)[C@@H](C)O)[C@@H](C)O)[C@@H](C)O)[C@@H](C)O)[C@@H](C)CC [Compound 151]
0.914 | 0.0085 | 0.0114 | 0.00383 | 0.0674 | 0.0224 | CC[C@H](C)[C@H](NC(=O)[C@H](CCC(=O)O)NC(=O)[C@H](CCC(=O)O)NC(=O)[C@H](CC(C)C)NC(=O)[C@H](CC(C)C)NC(=O)[C@@H](NC(=O)[C@H](CO)NC(=O)[C@H](Cc1ccc(O)cc1)NC(=O)[C@H](CC(=O)O)NC(=O)[C@H](CO)NC(=O)[C@@H](NC(=O)[C@H](Cc1ccccc1)NC(=O)[C@@H](NC(=O)CNC(=O)[C@H](CCC(=O)O)NC(=O)C(C)(C)NC(=O)[C@@H](N)Cc1ccc(O)cc1)[C@@H](C)O)[C@@H](C)O)[C@@H](C)CC)C(=O)N[C@@H](C)C(=O)N[C@@H](C)C(=O)N[C@@H](CCCNC(=N)N)C(=O)N[C@@H](CCC(=O)O)C(=O)N[C@@H](Cc1ccccc1)C(=O)N[C@H](C(=O)N[C@@H](CCC(=O)O)C(=O)N[C@@H](Cc1c[nH]c2ccccc12)C(=O)N[C@@H](CC(C)C)C(=O)N[C@@H](CC(C)C)C(=O)N[C@@H](C)C(=O)NCC(=O)NCC(=O)N1CCC[C@H]1C(=O)N[C@@H](CO)C(=O)N[C@@H](CO)C(=O)NCC(=O)N[C@@H](C)C(=O)NCC(=O)N[C@@H](CCC(N)=O)C(=O)N[C@@H](C)C(=O)N1CCC[C@H]1C(=O)NCC(=O)N[C@@H](CCC(=O)O)C(=O)N[C@@H](C)C(=O)N1CCC[C@H]1C(=O)NCC(=O)N[C@@H](C)C(=O)N[C@@H](CO)C(=O)N[C@@H](Cc1c[nH]cn1)C(=O)N[C@@H](CC(C)C)C(=O)N[C@@H](CO)C(=O)N[C@H](C(=O)N[C@@H](C)C(=O)N[C@@H](CCC(N)=O)C(=O)N[C@H](C(=O)N[C@@H](CCC(N)=O)C(=O)N[C@@H](CCCNC(=N)N)C(=O)N[C@@H](CC(C)C)C(=O)N[C@@H](CO)C(=O)N[C@@H](C)C(=O)N[C@@H](CCC(=O)O)C(=O)N[C@@H](CC(C)C)C(=O)N[C@@H](Cc1c[nH]cn1)C(=O)N[C@@H](CCCCNC(=O)COCCOCCNC(=O)COCCOCCNC(=O)CC[C@H](NC(=O)CCCCCCCCCCCCCCCCCCC(=O)O)C(=O)O)C(=O)N[C@@H](CC(C)C)C(=O)N[C@@H](C)C(=O)N[C@H](C(=O)N[C@@H](CC(C)C)C(=O)N1CCC[C@H]1C(=O)N[C@@H](CCCNC(=N)N)C(=O)N[C@H](C(=O)N[C@@H](CCC(=O)O)C(=O)N[C@H](C(=O)NCC(=O)N[C@@H](CO)C(=O)NCC(=O)N[C@@H](CO)C(=O)N1CCC[C@H]1C(N)=O)[C@@H](C)O)[C@@H](C)O)[C@@H](C)O)[C@@H](C)O)[C@@H](C)O)[C@@H](C)CC [Compound 152]
